# Literature values, collected in US20240100001A1, “DENATONIUM SALT FOR USE IN PREVENTING, PREVENTING PROGRESSION AND TREATING FATTY LIVER DISEASES” (AARDVARK THERAPEUTICS INC., priority 2021, published 2024).
# Read-outs that look alike come from different tables or passages of the source.
# Experiments:
# [1] = system: C57BL/6 male mice fed with the methionine- and choline-deficient (MCD) diet for 4 weeks; details: 5 mg/kg/day PO for the last 2 weeks; cited from earlier work
# [2] = system: A mouse model of diet-induced NASH; details: 10 mg/kg/day PO for eight weeks; cited from earlier work
# [3] = system: Male C57BL/6J mice fed with the AMLN diet for 32 weeks; details: SC for 12 weeks, Semaglutide 10 nmol/kg, cited from earlier work
# patients with NASH = details: cited from earlier work
# NAFLD/NASH = details: cited from earlier work; for benefit in NAFLD/NASH: agents tried so far
# [4] = system: Male C57BL/6 mice fed a fast food diet (FF diet) for 330 days; details: dose unknown, cited from earlier work
# [5] = system: Male C57BL/6J mice fed high fat diet for 20 weeks; details: 0.3 mg/kg/day PO for 20 weeks; cited from earlier work
# [6] = system: C57Bl6/J mice fed a MCD diet for 3 weeks; details: 10 or 30 mg/kg, PO, QD for 3 weeks; cited from earlier work
# [7] = system: Male DIAMOND mice fed high fat sugar water diet (WDSW) for 24 weeks; details: cited from earlier work
# [8] = system: FXR-deficient mice placed on a high-fat, high-fructose, highcholesterol diet (HFFCD) for 50 weeks; details: cited from earlier work
# [9] = system: AMLN model: C57BL/6J mice placed on AMLN diet for 30 weeks; details: 0.03-0.9 mg/kg for the last 4 weeks; cited from earlier work
# [10] = system: C57BL/6 mice treated with 60% high fat diet for 36 weeks; details: 0.3-3 mg/kg/day PO for 24 days; cited from earlier work
# [11] = system: STAM model: Streptozotocin-injected 2-day old male C57BL/6 mice fed high-fat diet; details: 3 mg/kg, twice weekly, cited from earlier work
# [12] = system: STAM model: Streptozotocin-injected 2-day old male C57BL/6 mice fed high-fat diet; details: cited from earlier work
# [13] = system: Male C57BL/6 mice fed a CDAHFD diet for 20 weeks; details: cited from earlier work
# [14] = ALT-801 5 or 10 nmol/kg (both doses)
# [15] = treatment started after FF diet induction for 240 days
# [16] = 30 mg/kg/day PO QD for the last 8 weeks
# [17] = SC for 2 weeks (start at Week 7)
# [18] = 60 mg/kg IV twice a week for 4 weeks, early treatment cohort
molecule,measurement,setting,value
CCCCCCCCCCCCCCCCCCCC(=O)N[C@H]1CC[C@@]2(C)[C@@H](C1)C[C@@H](O)[C@@H]1[C@@H]2C[C@H](O)[C@]2(C)[C@@H]([C@H](C)CCC(=O)O)CC[C@@H]12 [Aramchol],features of steatohepatitis,[1],Reduced
same,fibrosis,[1],Reduced
same,protein expression of COL1A1 in the liver,[1],decreased protein
Cc1cc(OCP2(=O)OCC[C@@H](c3cccc(Cl)c3)O2)cc(C)c1Cc1ccc(O)c(C(C)C)c1 (stereo partly drawn) [VK2809],NAS score mean improvement,[2],score (a 40%
same,"all subcomponents of NAS (inflammation, ballooning, and steatosis)",[2],Improvements
same,liver content of cholesterol,[2],improved liver
same,liver content of collagen,[2],improved liver
same,liver content of hydroxyproline,[2],improved liver
same,liver content of triglyceride,[2],improved liver
same,liver fibrosis on histopathology,[2],improved NAS
same,plasma cholesterol,[2],reduced plasma
same,plasma triglycerides,[2],reduced plasma
semaglutide,NAS overall score,[3]; [14],decreased liver
same,liver weight,[3]; [14],decreased liver
same,liver TG level,[3]; ALT-801 5 or 10 nmol/kg,decreased liver
same,liver content of fibrosis markers,[3]; ALT-801 5 or 10 nmol/kg,decreased liver
same,liver total cholesterol level,[3]; ALT-801 5 or 10 nmol/kg,decreased liver
same,plasma ALT level,[3]; ALT-801 5 or 10 nmol/kg,decreased liver
same,percentage of patients with NASH resolution and no worsening of fibrosis,patients with NASH; 0.1-mg group,40%
same,percentage of patients with NASH resolution and no worsening of fibrosis,patients with NASH; 0.2-mg group,36%
same,mean percent weight loss,patients with NASH; 0.4-mg group,13%
same,percentage of patients with NASH resolution and no worsening of fibrosis,patients with NASH; 0.4-mg group,59%
same,percentage of patients with an improvement in fibrosis stage vs placebo,patients with NASH; daily subcutaneous,did not show a significant between-group difference
same,incidence of constipation,"patients with NASH; human, in vivo",22%
same,incidence of nausea,"patients with NASH; human, in vivo",42%
same,incidence of vomiting,"patients with NASH; human, in vivo",15%
same,patients with malignant neoplasms,"patients with NASH; human, in vivo",1%
same,"patients with neoplasms (benign, malignant, or unspecified)","patients with NASH; human, in vivo",15%
CCCCCCCCCCC[C@@H](C[C@@H]1OC(=O)[C@H]1CCCCCC)OC(=O)[C@H](CC(C)C)NC=O [orlistat],benefit compared to diet and exercise (weight loss alone),NAFLD/NASH; in vivo,no significant benefit
Cc1cc(F)c(C(=O)Nc2cccc(-c3nncn3C(C)C)n2)cc1-n1cnc(C2CC2)c1 [Selonsertib],Reduced liver cholesterol,[4],45%
same,Reduced serum cholesterol,[4],14%
same,serum bile acids,[4],reduced serum
same,serum cholate reduction,[4],cholate (91%
same,serum deoxycholate reduction,[4],(90% reduction).
same,fibrosis,[4]; [15],reduced liver
same,insulin resistance,[4]; [15],reduced liver
same,liver steatosis,[4]; [15],reduced liver
"Cc1c(C)c2c(c(C)c1O)CC[C@@](C)(CCC[C@H](C)CCC[C@H](C)CCCC(C)C)O2 [vitamin E, α-tocopherol]",benefit in NAFLD/NASH,NAFLD/NASH,unsuccessfully or with only modest benefit
C[C@H](NC(=O)C(=O)Nc1ccccc1C(C)(C)C)C(=O)N[C@@H](CC(=O)O)C(=O)COc1c(F)c(F)cc(F)c1F [Emricasan],HOMA-IR,[5],Decreased
same,ballooning on histopathology,[5],Improved
same,fibrosis on histopathology,[5],Improved
same,fibrotic and inflammatory gene signature,[5],Decreased
same,inflammation on histopathology,[5],Improved
same,serum level of ALT,[5],Decreased
same,serum level of AST,[5],Decreased
same,serum level of cholesterol,[5],Decreased
same,serum level of glucose,[5],Decreased
O=C(O)CCCc1cc2cc(Cl)ccc2n1S(=O)(=O)c1ccc2ncsc2c1 [Lanifibranor],inflammation on histopathology,[6],prevented
same,liver triglyceride levels,[6],decreased
same,plasma alanine aminotransferase levels,[6],reduced plasma
same,serum triglyceride levels,[6],decreased
same,steatosis on histopathology,[6],prevented
COc1cccc(C(=O)COc2ccc(CC3SC(=O)NC3=O)cc2)c1 (stereo not drawn) [Azemiglitazone],ballooning,[7]; 30 mg/kg/day PO QD for the last 8 weeks (16-24 weeks),decreased
same,NASH CRN fibrosis score,[7]; [16],group was 0.
same,mice progressed from simple steatosis to NASH compared to the control group,[7]; [16],fewer MSDC-
same,serum level of ALT,[7]; [16],reduced serum
same,serum level of AST,[7]; [16],reduced serum
same,serum level of fasting insulin,[7]; [16],reduced serum
same,NAFLD Activity Score (NAS),"[7]; 30 mg/kg/day PO QD for the last 8 weeks, trended lower",(NAS) trended
Aldafermin,hepatic expression of inflammatory and fibrotic biomarkers,[8]; delivered by AAV at Week 16,decreased
same,hepatocellular fibrosis,[8]; delivered by AAV at Week 16,reduced
same,serum level of ALT,[8]; delivered by AAV at Week 16,reduced serum
same,serum level of AST,[8]; delivered by AAV at Week 16,reduced serum
same,spleen weight,[8]; delivered by AAV at Week 16,reduced liver
same,steatosis,[8]; delivered by AAV at Week 16,not impact
same,liver weight,[8]; delivered by adeno-associated viral vector (AAV) at Week 16,reduced liver
O=C(O)c1cc(F)c2nc(N3[C@@H]4CC[C@H]3C[C@@H](OCc3c(-c5ccccc5OC(F)(F)F)noc3C3CC3)C4)sc2c1 [Tropifexor],fibrosis,[9],reduced
same,hepatic inflammation cell populations,[9],reduced mRNA
same,inflammation,[9],reduced
same,mRNA levels of fibrogenic markers,[9],reduced mRNA
same,steatosis,[9],reduced
CC(C)c1cc(Oc2c(Cl)cc(-n3nc(C#N)c(=O)[nH]c3=O)cc2Cl)n[nH]c1=O [Resmetirom],fibrosis in treated livers,[10],No detectable
same,inflammation in treated livers,[10],No detectable
same,insulin sensitivity,[10],Improved
same,reduced serum level of ALT,[10],"(46%), free"
same,reduced serum level of cholesterol,[10],(67%).
same,steatosis in treated livers,[10],No detectable
Pegbelfermin,mean grade for hepatocellular ballooning,[11]; [17],decreased
same,mean grade for lobular inflammation,[11]; [17],decreased
same,mean grade for steatosis,[11]; [17],decreased
same,decrease of mean serum fibrosis biomarker Pro-C3,[11]; SC for 2 weeks,C3 by 44%
same,liver triglycerides,[11]; SC for 2 weeks,improved
same,liver/body weight ratio,[11]; SC for 2 weeks,"(−20%), as well"
same,plasma triglycerides,[11]; SC for 2 weeks,improved
same,whole blood glucose,[11]; SC for 2 weeks,"glucose (−30%),"
O=C1O[C@H]([C@@H](O)CO)C(O)=C1O [vitamin C],benefit in NAFLD/NASH,NAFLD/NASH,unsuccessfully or with only modest benefit
CC(=O)CCCCn1c(=O)c2c(ncn2C)n(C)c1=O [pentoxifylline],benefit in NAFLD/NASH,NAFLD/NASH,unsuccessfully or with only modest benefit
Belapectin,"expression of pathological indicators including iNOS, CD36, and a-smooth muscle actin",[12]; 60 mg/kg IV twice a week for 4 weeks,reduced the
same,fat deposition,"[12]; 60 mg/kg IV twice a week for 4 weeks, early treatment cohort (from Week 6)",Decreased fat
same,hepatocellular ballooning,[12]; [18],Decreased fat
same,inflammatory infiltrate,[12]; [18],Decreased fat
same,NAS score,"[12]; early treatment cohort (from Week 6), significant",improved NAS
same,NAS versus vehicle control,"[12]; late treatment cohort (from Week 9), did not reach significance",improvement
CCO[C@@H](Cc1ccc(OCCn2c(C)ccc2-c2ccc(SC)cc2)cc1)C(=O)O [Saroglitazar],ballooning,[13]; 3 mg/kg PO for 12 weeks,reduced or no
same,hepatic steatosis,[13]; 3 mg/kg PO for 12 weeks,reversal of
same,vacuolation,[13]; 3 mg/kg PO for 12 weeks,reduced or no
same,Liver lipid (TG) accumulation attenuated,[13]; 3 mg/kg,79%
same,hepatic fibrogenic and inflammatory gene expression,[13]; 3 mg/kg,also reduced
same,liver TNFα levels,[13]; 3 mg/kg,also reduced
same,liver collagen content attenuated,[13]; 3 mg/kg,41%
same,reduced serum level of ALT,[13]; 3 mg/kg,"(60%), AST"
same,reduced serum level of MCP1,[13]; 3 mg/kg,MCP1 (45%).
